According to publication PMC5387044, “Analogs of the Frog-skin Antimicrobial Peptide Temporin 1Tb Exhibit a Wider Spectrum of Activity and a Stronger Antibiofilm Potential as Compared to the Parental Peptide” (Frontiers in Chemistry, 2017):
Marks after values point to notes of the source that are not given here. No end group written: not given here.

Legend:
[1] = system: P. aeruginosa ATCC 27853; conditions: for FIC index / MIC: ATCC 27853, 24 h
[2] = system: P. aeruginosa ATCC 27853; conditions: ATCC 27853, 24 h, pH 7.4
[3] = system: preformed biofilms of P. aeruginosa ATCC 27853; assay: Biofilm treatment assay on preformed (24-h old) biofilms, CFU counting, alone and with EDTA; assay type: cell-based, Pseudomonas aeruginosa; conditions: 30 μM peptide + 2.5 mM EDTA
[4] = system: S. epidermidis ATCC 35984; conditions: ATCC 35984, 24 h, pH 7.4
[5] = system: P. aeruginosa ATCC 27853; assay type: cell-based, Pseudomonas aeruginosa; conditions: pH 7.4
[6] = system: preformed biofilms of S. aureus ATCC 33591; assay: Biofilm treatment assay on preformed (24-h old) biofilms, CFU counting, alone and with EDTA; assay type: cell-based, Staphylococcus aureus; conditions: 30 μM peptide alone
Description: The activity of TB, TB_L1FK, and TB_KKG6A against preformed (24-h old) biofilms of S. aureus and P. aeruginosa was also investigated. Briefly, biofilms were allowed to form for 24 h in flat-bottom 96-well microplates in the absence of antimicrobial compounds. Established biofilms were then washed three times with PBS in order to remove non-adherent cells and incubated in fresh BPM with different concentrations of the three peptides (from 15 to 120 μM). After 24 h of incubation, the viability of biofilm-associated cells was evaluated by CFU counting. For this purpose, biofilms were washed three times with PBS and bacterial cells were detached from the surface of the wells with a pipette tip, vigorously vortexed and plated in serial dilutions on TSA.
TB_L1FK and TB_KKG6A were combined with EDTA in order to enhance their activity against preformed biofilms of S. aureus and P. aeruginosa. […] Following incubation, the antibiofilm effect was evaluated in terms of number of biofilm-associated viable cells as previously described.
Figure 4 Activity of TB_L1FK and TB_KKG6A, used alone and in combination with EDTA, against preformed (24-h old) biofilms of S. aureus ATCC 33591 (A,B) and P. aeruginosa ATCC 27853 (C,D). The antibiofilm activity of the peptides, EDTA and the peptide-EDTA combinations was evaluated by CFU counting after 24 h of incubation. […]

[7] = system: K. pneumoniae ATCC BAA-1706; conditions: ATCC BAA-1706, 24 h, pH 7.4
[8] = system: P. aeruginosa ATCC 27853 biofilm formation
[9] = system: S. aureus ATCC 33591 biofilm formation; assay type: cell-based, Staphylococcus aureus
[10] = system: S. aureus ATCC 33591; conditions: for MIC: ATCC 33591, 24 h
[11] = system: S. aureus ATCC 33591; conditions: ATCC 33591, 24 h, pH 7.4
[12] = system: human peripheral blood mononuclear cells (PBMCs); conditions: 24 h
[13] = system: human non-small-cell lung adenocarcinoma A549 cells; conditions: 24 h
[14] = system: S. aureus ATCC 33591; assay type: cell-based, Staphylococcus aureus; conditions: pH 7.4

Substance | Concentration of the peptide resulting in a synergistic effect [1] | FIC index [1] | MIC [1] | MBC [2] | Reduction in CFU number of peptide-EDTA combination compared to the peptide used alone [3] | MBC [4] | Time to complete eradication of the starting bacterial inoculum [5] | Decrease in the number of biofilm-associated viable cells vs untreated biofilms [6] | MBC [7] | Inhibitory activity on forming biofilms [8] | Reduction of biofilm formation vs untreated control [9] | FIC index [10] | MIC [10] | MBC [11] | IC50 [12] | IC50 [13] | Time to bactericidal effect (reduction of at least 3 Log10 in viable bacteria) [14] | Time to bactericidal effect [5] | Inhibition of biofilm biomass ([8]; ATCC 27853, 24 h, 24 μM)
FLPIVGLLKSLLK-NH2 [TB_L1FK] | 0.25 (15 μM)^b | 0.25 (15 μM)^b | 120 µM | 6 µM | approximately 1 Log10 | 1.5 µM | ≤ 5 min | approximately 2 Log10 | 6 µM | no inhibitory activity | more than 50% | > 0.5 | 15 µM | 6 µM | 52 µM | 59 µM | ≤ 30 min |  | 
KKLLPIVANLLKSLL-NH2 [TB_KKG6A] | 0.25 (3.75 μM) | 0.25 (3.75 μM) | 30 µM | 3 µM | approximately 1 Log10 | 1.5 µM |  | approximately 2 Log10 | 3 µM |  | more than 50% | > 0.5 | 7.5 µM | 1.5 µM | 49 µM | 16 µM | ≤ 60 min | 15 min | 80%
